The results in this text go back to PubChem BioAssay AID1259407 (Chemical Carcinogenesis Research Information System (CCRIS), 2018).

For the series, the system named is CCRIS mutagenicity, Ames/micronucleus/aberration tests. Description: CCRIS mutagenicity studies.
Where [1] appears, read: Test System: AMES SALMONELLA TYPHIMURIUM, Strain/Indicator: TA97, Metabolic Activation: HAMSTER, LIVER, S-9, AROCLOR 1254 (10 OR 30%), Method: PREINCUBATION
Setting [2] is: Test System: AMES SALMONELLA TYPHIMURIUM, Strain/Indicator: TA97, Metabolic Activation: NONE, Method: PREINCUBATION
Where [3] appears, read: Test System: AMES SALMONELLA TYPHIMURIUM, Strain/Indicator: TA97, Metabolic Activation: RAT, LIVER, S-9, AROCLOR 1254 (10 OR 30%), Method: PREINCUBATION
Setting [4] is: Test System: AMES SALMONELLA TYPHIMURIUM, Strain/Indicator: TA98, Metabolic Activation: NONE, Method: PREINCUBATION
Where [5] appears, read: Test System: AMES SALMONELLA TYPHIMURIUM, Strain/Indicator: TA100, Metabolic Activation: NONE, Method: PREINCUBATION
Setting [6] is: Test System: AMES SALMONELLA TYPHIMURIUM, Strain/Indicator: TA98, Metabolic Activation: RAT, LIVER, S-9, AROCLOR 1254, Method: STANDARD PLATE.
The mark [7] stands for this setting: Test System: AMES SALMONELLA TYPHIMURIUM, Strain/Indicator: TA100, Metabolic Activation: RAT, LIVER, S-9, AROCLOR 1254, Method: STANDARD PLATE.

The source made the active and inactive calls. No rule for the calls is given here.

`[Ga]#[As]`: the mutagenic call is, setting by setting: under setting [1], “inactive; negative”; under setting [2], “inactive; negative”; under setting [3], “inactive; negative”; (Test System: AMES SALMONELLA TYPHIMURIUM, Strain/Indicator: TA98, Metabolic Activation: HAMSTER, LIVER, S-9, AROCLOR 1254 (10%), Method: PREINCUBATION) “inactive; negative”; (Test System: AMES SALMONELLA TYPHIMURIUM, Strain/Indicator: TA98, Metabolic Activation: HAMSTER, LIVER, S-9, AROCLOR 1254 (30%), Method: PREINCUBATION) “inactive; negative”; under setting [4], “inactive; negative”. In addition, the mutagenic call reads like this: (Test System: AMES SALMONELLA TYPHIMURIUM, Strain/Indicator: TA98, Metabolic Activation: RAT, LIVER, S-9, AROCLOR 1254 (10%), Method: PREINCUBATION) “inactive; negative”; (Test System: AMES SALMONELLA TYPHIMURIUM, Strain/Indicator: TA98, Metabolic Activation: RAT, LIVER, S-9, AROCLOR 1254 (30%), Method: PREINCUBATION) “inactive; negative”; (Test System: AMES SALMONELLA TYPHIMURIUM, Strain/Indicator: TA100, Metabolic Activation: HAMSTER, LIVER, S-9, AROCLOR 1254 (10%), Method: PREINCUBATION) “inactive; negative”; (Test System: AMES SALMONELLA TYPHIMURIUM, Strain/Indicator: TA100, Metabolic Activation: HAMSTER, LIVER, S-9, AROCLOR 1254 (30%), Method: PREINCUBATION) “inactive; negative”; under setting [5], “inactive; negative”; (Test System: AMES SALMONELLA TYPHIMURIUM, Strain/Indicator: TA100, Metabolic Activation: RAT, LIVER, S-9, AROCLOR 1254 (10%), Method: PREINCUBATION) “inactive; negative”. Besides, the mutagenic call (Test System: AMES SALMONELLA TYPHIMURIUM, Strain/Indicator: TA100, Metabolic Activation: RAT, LIVER, S-9, AROCLOR 1254 (30%), Method: PREINCUBATION) is “inactive; negative”; the mutagenic call (Test System: AMES SALMONELLA TYPHIMURIUM, Strain/Indicator: TA102, Metabolic Activation: HAMSTER, LIVER, S-9, AROCLOR 1254 (5 OR 10%), Method: PREINCUBATION) is “inactive; negative”; the mutagenic call (Test System: AMES SALMONELLA TYPHIMURIUM, Strain/Indicator: TA102, Metabolic Activation: HAMSTER, LIVER, S-9, AROCLOR 1254 (30%), Method: PREINCUBATION) was “inactive; negative”; the mutagenic call (Test System: AMES SALMONELLA TYPHIMURIUM, Strain/Indicator: TA102, Metabolic Activation: NONE, Method: PREINCUBATION) is “inactive; negative”; the mutagenic call (Test System: AMES SALMONELLA TYPHIMURIUM, Strain/Indicator: TA102, Metabolic Activation: RAT, LIVER, S-9, AROCLOR 1254 (10%), Method: PREINCUBATION) was “inactive; negative”; the mutagenic call (Test System: AMES SALMONELLA TYPHIMURIUM, Strain/Indicator: TA102, Metabolic Activation: RAT, LIVER, S-9, AROCLOR 1254 (30%), Method: PREINCUBATION) is “inactive; negative”. The mutagenic call by setting is: (Test System: AMES SALMONELLA TYPHIMURIUM, Strain/Indicator: TA1535, Metabolic Activation: HAMSTER, LIVER, S-9, AROCLOR 1254 (10%), Method: PREINCUBATION) “inactive; negative”; (Test System: AMES SALMONELLA TYPHIMURIUM, Strain/Indicator: TA1535, Metabolic Activation: HAMSTER, LIVER, S-9, AROCLOR 1254 (30%), Method: PREINCUBATION) “inactive; negative”; (Test System: AMES SALMONELLA TYPHIMURIUM, Strain/Indicator: TA1535, Metabolic Activation: NONE, Method: PREINCUBATION) “inactive; negative”; (Test System: AMES SALMONELLA TYPHIMURIUM, Strain/Indicator: TA1535, Metabolic Activation: RAT, LIVER, S-9, AROCLOR 1254 (10%), Method: PREINCUBATION) “inactive; negative”; (Test System: AMES SALMONELLA TYPHIMURIUM, Strain/Indicator: TA1535, Metabolic Activation: RAT, LIVER, S-9, AROCLOR 1254 (30%), Method: PREINCUBATION) “inactive; negative”.
For the molecule `O=Cc1ccc2ccc3cccc4ccc1c2c34`, the mutagenic call is “active; positive” under setting [6] and “active; positive” under setting [7].
As for `CC1(OO)c2ccccc2-c2ccccc21`, the mutagenic call by setting is: (Test System: AMES SALMONELLA TYPHIMURIUM, Strain/Indicator: TA98, Metabolic Activation: NONE, Method: STANDARD PLATE) “active; positive”; under setting [6], “active; positive”; (Test System: AMES SALMONELLA TYPHIMURIUM, Strain/Indicator: TA100, Metabolic Activation: NONE, Method: STANDARD PLATE) “active; positive”; under setting [7], “active; positive”.
On to `Cc1ccc(N(C)C)cc1`, for which the mutagenic call was “inactive; negative” under setting [1]; “inactive; negative” under setting [2]; “inactive; negative” under setting [3]; “inactive; negative” (Test System: AMES SALMONELLA TYPHIMURIUM, Strain/Indicator: TA98, Metabolic Activation: HAMSTER, LIVER, S-9, AROCLOR 1254 (10 OR 30%), Method: PREINCUBATION); “inactive; negative” under setting [4]; “inactive; negative” (Test System: AMES SALMONELLA TYPHIMURIUM, Strain/Indicator: TA98, Metabolic Activation: RAT, LIVER, S-9, AROCLOR 1254 (10 OR 30%), Method: PREINCUBATION). Further, the mutagenic call was “inactive; negative” (Test System: AMES SALMONELLA TYPHIMURIUM, Strain/Indicator: TA100, Metabolic Activation: HAMSTER, LIVER, S-9, AROCLOR 1254 (10 OR 30%), Method: PREINCUBATION); “inactive; negative” under setting [5]; “inactive; negative” (Test System: AMES SALMONELLA TYPHIMURIUM, Strain/Indicator: TA100, Metabolic Activation: RAT, LIVER, S-9, AROCLOR 1254 (10 OR 30%), Method: PREINCUBATION); “active; positive” (Test System: AMES SALMONELLA TYPHIMURIUM, Strain/Indicator: TA1535, Metabolic Activation: RAT, LIVER, S-9, AROCLOR 1254 (5%), Method: STANDARD PLATE); “active; positive” (Test System: AMES SALMONELLA TYPHIMURIUM, Strain/Indicator: TA1535, Metabolic Activation: RAT, LIVER, S-9, AROCLOR 1254 (5,10%), Method: PREINCUBATION); “active; positive. reevaluation of results: equivocal” (Test System: MOUSE LYMPHOMA, Strain/Indicator: L5178Y (TK+/TK-), Metabolic Activation: NONE, Method: SUSPENSION/PLATE). For the same molecule, the mutagenic call (Test System: MOUSE LYMPHOMA, Strain/Indicator: L5178Y (TK+/TK-), Metabolic Activation: RAT, LIVER, S-9, AROCLOR 1254, Method: SUSPENSION/PLATE) is “active; positive. reevaluation of results: positive”.
Consider `CN1CCN(N=O)CC1`, for which the mutagenic call (Test System: CHINESE HAMSTER V-79, Strain/Indicator: V-79/8-AZAGUANINE, Metabolic Activation: RAT, LIVER, S-15, PHENOBARBITAL, Method: STANDARD PLATE) was “active; positive”.
